The values below come from patent publication US11339157B1, “4H-pyrrolo[3,2-c]pyridin-4-one derivatives” (Bayer Aktiengesellschaft, priority 2017, dated 2022).

Structures are written as SMILES. Where “and” joins values, the source holds several entries; their conditions need not be identical. Equal entries are not always repeated. Where two headings read alike, the source gives them in different places. Bounds are passed on as bounds.

One experiment has as its system Ba/F3-EGFR-WT cells. The experiment in a line: Proliferation assay in BA/F3 (wild type) cells (Cell Titer-Glo). The class given is cell-based. The note with it: Mus musculus. Put shortly: (§1)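 Ba/F3 cells stably expressing retrovirally transduced EGFR-WT or EGFR-insSVD; WT cells plated with 10 ng/mL EGF, insSVD cells without EGF. Compound exposure 48 h at 37° C; viability read by CellTiter-Glo luminescence.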

The next experiment concerns the target Bub1 (Homo sapiens (Human), UniProt O43683). Put plainly: Bub1 kinase assay (TR-FRET, 10 μM ATP). The note with it: mean, read-out: Bub1 kinase assay IC50 [mol/l] (mean). The class given is biochemical. The text has this: Bub1-inhibitory activities of compounds described in the present invention were quantified using a time-resolved fluorescence energy transfer (TR-FRET) kinase assay which measures phosphorylation of the synthetic peptide Biotin-Ahx-[…]—SEQ ID NO: 5 (C-terminus in amide form), purchased from e.g. Biosyntan (Berlin, Germany) by the (recombinant) catalytic domain of human Bub1 (amino acids 704-1085), expressed in Hi5 insect cells with an N-terminal His6-tag (SEQ ID NO: 9) and purified by affinity-(Ni-NTA) and size exclusion chromatography.
In a typical assay 11 different concentrations of each compound (0.1 nM, 0.33 nM, 1.1 nM, 3.8 nM, 13 nM, 44 nM, 0.15 μM, 0.51 μM, 1.7 μM, 5.9 μM and 20 μM) were tested in duplicate within the same microtiter plate. To this end, 100-fold concentrated compound solutions (in DMSO) were previously prepared by serial dilution (1:3.4) of 2 mM stocks in a clear low volume 384-well source microtiter plate (Greiner Bio-One, Frickenhausen, Germany), from which 50 nl of compounds were transferred into a black low volume test microtiter plate from the same supplier. […] The resulting mixture (5 μl final volume) was incubated at 22° C. during 60 min., and the reaction was stopped by the addition of 5 μl of an aqueous EDTA-solution (50 mM EDTA, in 100 mM HEPES pH 7.5 and 0.2% (w/v) bovine serum albumin) which also contained the TR-FRET detection reagents (0.2 μM streptavidin-XL665 [Cisbio Bioassays, Codolet, France] and 1 nM anti-phosho-Serine antibody [Merck Millipore, cat. #35-002] and 0.4 nM LANCE EU-W1024 labeled anti-mouse IgG antibody [Perkin-Elmer, product no. AD0077, alternatively a Terbium-cryptate-labeled anti-mouse IgG antibody from Cisbio Bioassays can be used]). The stopped reaction mixture was further incubated 1 h at 22° C. in order to allow the formation of complexes between peptides and detection reagents. Subsequently, the amount of product was evaluated by measurement of the resonance energy transfer from the Eu-chelate-antibody complex recognizing the Phosphoserine residue to the streptavidin-XL665 bound to the biotin moiety of the peptide. To this end, the fluorescence emissions at 620 nm and 665 nm after excitation at 330-350 nm were measured in a TR-FRET plate reader, e.g. a Rubystar or Pherastar (both from BMG Labtechnologies, Offenburg, Germany) or a Viewlux (Perkin-Elmer) and the ratio of the emissions (665 nm/[…]) was taken as indicator for the amount of phosphorylated substrate. The data were normalised using two sets of control wells for high-(=enzyme reaction without inhibitor=0%=Minimum inhibition) and low-(=all assay components without enzyme=100%=Maximum inhibition) Bub1 activity. IC50 values were calculated by fitting the normalized inhibition data to a 4-parameter logistic equation (Minimum, Maximum, IC50, Hill; Y=Max+(Min−Max)/(1+(X/IC50)Hill)).

Another experiment relates to Ba/F3-EGFR-insSVD cells. The experiment in a line: Proliferation assay in BA/F3 (ins SVD) cells (Cell Titer-Glo). The class given is cell-based. The gist of the method:
as §1

The target in experiment [1] is EGFR ins ASV (insertion of ASV between V769 and D770). The experiment in a line: Exon 20-Mutant-EGFR(V769_D770insASV) kinase assay (TR-FRET). Format: biochemical, human. Particulars: 2 mM ATP.
Procedure: Exon 20-Mutant-EGFR(V769_D770insASV) Kinase Assay
Inhibitory activity of compounds of the present invention against an Epidermal Growth Factor Receptor (EGFR) with an insertion of the amino acids sequence ASV between V769 and D770 was quantified employing the TR-FRET based kinase activity assay as described in the following paragraphs.
For the assay 50 nl of a 100-fold concentrated solution of the test compound in DMSO was pipetted into either a black low volume 384well microtiter plate or a black 1536 well microtiter plate (both Greiner Bio-One, Frickenhausen, Germany), 2 μl of a solution of EGFR in aqueous assay buffer [50 mM Hepes pH 7.0, 10 mM MgCl2, 1 mM dithiothreitol, 0.5 mM EGTA, 0.3 mM activated sodium ortho-vanadate, 0.005% (w/v) bovine serum albumin, 0.005% (v/v) Tween-20] were added and the mixture was incubated for 15 min at 22° C. to allow pre binding of the test compounds to the enzyme before the start of the kinase reaction. […] The concentration of EGFR was adjusted depending of the activity of the enzyme lot and was chosen appropriate to have the assay in the linear range, typical concentration was 2.5 pg/μl. The reaction was stopped by the addition of 3 μl of a solution of HTRF detection reagents (83.3 nM streptavidine-XL665 [Cisbio Bioassays, Codolet, France] and 1.67 nM PT66-Tb-Cryptate, an terbium-cryptate labelled anti-phospho-tyrosine antibody from Cisbio Bioassays [instead of the PT66 Tb cryptate PT66 Eu Chelate from Perkin Elmer can also be used]) in an aqueous EDTA-solution (133.3 mM EDTA, 0.2% (w/v) bovine serum albumin in 50 mM HEPES pH 7.5).
The resulting mixture was incubated 1 h at 22° C. to allow the binding of the biotinylated phosphorylated peptide to the streptavidine-XL665 and the PT66-Tb-Cryptate. Subsequently the amount of phosphorylated substrate was evaluated by measurement of the resonance energy transfer from the PT66-Tb-Cryptate to the streptavidine-XL665.
Experiment [2] has as its target EGFR ins SVD (insertion of SVD between D770 and N771) (Homo sapiens, UniProt P00533, INS767SVD). The experiment in a line: Exon 20-Mutant-EGFR(D770_N771insSVD) kinase assay (TR-FRET). Format: biochemical.
Setting [3] is: BaF3, 48 h, Table 10, plated with 10 ng/mL EGF.
Setting [4] is: Mus musculus, BaF3, 48 h, Table 10, plated without EGF.
[5] abbreviates: 2 mM ATP, mean, read-out: EGFR ins SVD IC50 [mol/l] (mean).
[6] abbreviates: Table 9, read-out: mutEGFR (D770_N771insSVD) kinase assay IC50.
Where [7] appears, read: Mus musculus, BaF3, Table 10, plated without EGF, 48 h.
[8] abbreviates: BaF3, Table 10, plated with 10 ng/mL EGF, 48 h.

Sequence of EGFR ins SVD (insertion of SVD between D770 and N771) (P00533 with tags, fused parts or gaps INS767SVD limits assumed): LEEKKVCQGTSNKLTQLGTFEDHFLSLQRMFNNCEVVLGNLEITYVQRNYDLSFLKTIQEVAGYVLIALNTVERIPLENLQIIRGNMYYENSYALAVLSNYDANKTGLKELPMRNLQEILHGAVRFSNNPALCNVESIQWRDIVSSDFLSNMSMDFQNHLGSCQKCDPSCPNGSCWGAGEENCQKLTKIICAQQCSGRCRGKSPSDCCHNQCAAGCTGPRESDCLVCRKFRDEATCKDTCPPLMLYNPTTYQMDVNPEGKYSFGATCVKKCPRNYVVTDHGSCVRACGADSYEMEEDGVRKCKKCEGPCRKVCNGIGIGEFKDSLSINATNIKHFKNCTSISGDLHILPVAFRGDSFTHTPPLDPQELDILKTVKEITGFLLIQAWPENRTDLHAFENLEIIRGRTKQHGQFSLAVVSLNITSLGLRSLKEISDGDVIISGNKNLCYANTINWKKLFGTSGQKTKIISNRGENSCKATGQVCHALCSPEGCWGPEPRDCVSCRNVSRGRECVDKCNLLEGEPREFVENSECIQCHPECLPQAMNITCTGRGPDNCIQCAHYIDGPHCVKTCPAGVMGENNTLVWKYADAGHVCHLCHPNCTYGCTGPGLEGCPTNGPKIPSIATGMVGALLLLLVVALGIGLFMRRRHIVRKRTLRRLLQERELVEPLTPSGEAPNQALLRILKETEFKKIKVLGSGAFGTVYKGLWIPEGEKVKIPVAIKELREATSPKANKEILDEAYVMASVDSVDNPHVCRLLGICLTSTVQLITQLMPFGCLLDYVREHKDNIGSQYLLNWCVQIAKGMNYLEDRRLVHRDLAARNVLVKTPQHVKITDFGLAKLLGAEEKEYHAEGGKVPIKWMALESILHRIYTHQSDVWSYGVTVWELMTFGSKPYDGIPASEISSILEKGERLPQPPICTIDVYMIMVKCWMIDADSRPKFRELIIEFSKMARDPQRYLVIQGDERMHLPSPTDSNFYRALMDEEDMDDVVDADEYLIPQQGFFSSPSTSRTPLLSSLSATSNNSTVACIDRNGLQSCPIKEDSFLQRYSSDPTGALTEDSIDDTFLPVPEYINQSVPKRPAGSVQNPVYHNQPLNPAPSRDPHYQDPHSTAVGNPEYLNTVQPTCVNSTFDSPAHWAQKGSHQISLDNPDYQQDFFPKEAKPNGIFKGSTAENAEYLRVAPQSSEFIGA
Sequence of Bub1 (O43683 704-1085): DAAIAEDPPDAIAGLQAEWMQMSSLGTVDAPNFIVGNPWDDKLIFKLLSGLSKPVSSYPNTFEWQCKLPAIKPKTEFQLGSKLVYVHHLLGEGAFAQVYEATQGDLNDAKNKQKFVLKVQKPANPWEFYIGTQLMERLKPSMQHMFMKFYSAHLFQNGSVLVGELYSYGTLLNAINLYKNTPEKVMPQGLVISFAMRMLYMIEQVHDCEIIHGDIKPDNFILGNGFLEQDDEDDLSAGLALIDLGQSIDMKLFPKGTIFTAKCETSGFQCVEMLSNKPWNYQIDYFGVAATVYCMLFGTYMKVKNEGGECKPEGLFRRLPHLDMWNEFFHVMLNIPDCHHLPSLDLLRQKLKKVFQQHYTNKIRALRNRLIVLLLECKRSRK

As for `CCOc1c(F)cccc1Nc1c(-c2ccncc2OCCOC)[nH]c2c1C(=O)NCC2` [Example 25, 3-[(2-ethoxy-3-fluorophenyl)amino]-2-[3-(2-methoxyethoxy)pyridin-4-yl]-1,5,6,7-tetrahydro-4H-pyrrolo[3,2-c]pyridin-4-one], the values for the IC50 with Ba/F3-EGFR-WT cells (setting [3]) and on Bub1 were 2280 nM and 228 nM, respectively.
For `COCCOc1cnccc1-c1[nH]c2c(c1Nc1cccc(F)c1OC)C(=O)NCC2` [Example 16, 3-[(3-fluoro-2-methoxyphenyl)amino]-2-[3-(2-methoxyethoxy)pyridin-4-yl]-1,5,6,7-tetrahydro-4H-pyrrolo[3,2-c]pyridin-4-one], the IC50 was 24.1 nM in the experiment with Ba/F3-EGFR-insSVD cells (setting [4]), 454 nM in the experiment on Ba/F3-EGFR-WT cells (setting [3]) and 145 nM at Bub1.
For the molecule `COCCOc1cnccc1-c1[nH]c2c(c1Nc1cccc(F)c1Br)C(=O)NCC2` [Example 12, 3-[(2-bromo-3-fluorophenyl)amino]-2-[3-(2-methoxyethoxy)pyridin-4-yl]-1,5,6,7-tetrahydro-4H-pyrrolo[3,2-c]pyridin-4-one], in experiment [1], the “EGFR ins ASV IC50 [mol] (mean)” value is 2.18e-10 mol. In addition, the IC50 in experiment [2] (setting [5]) and in experiment [2] (setting [6]) was 0.0857 nM each time.
Take `CC(C)(COc1cnccc1-c1[nH]c2c(c1Nc1cccc(F)c1)C(=O)NCC2)N1CCOCC1` [Example 7, 3-[(3-fluorophenyl)amino]-2-{3-[2-methyl-2-(morpholin-4-yl)propoxy]pyridin-4-yl}-1,5,6,7-tetrahydro-4H-pyrrolo[3,2-c]pyridin-4-one]: the IC50 turned out to be 462 nM in the experiment with Ba/F3-EGFR-insSVD cells (setting [7]); 2700 nM in the experiment with Ba/F3-EGFR-WT cells (setting [8]); 397 nM on Bub1; 0.718 nM in experiment [2] (setting [5]); 1.13 nM in experiment [2] (setting [6]).
In the case of `COc1c(Nc2c(-c3ccncc3OCC(C)(C)OC)[nH]c3c2C(=O)NCC3)ccc(F)c1F` [Example 29, 3-[(3,4-difluoro-2-methoxyphenyl)amino]-2-[3-(2-methoxy-2-methylpropoxy)pyridin-4-yl]-1,5,6,7-tetrahydro-4H-pyrrolo[3,2-c]pyridin-4-one], the IC50 was determined as 229 nM in the experiment with Ba/F3-EGFR-insSVD cells (setting [4]), 2360 nM with Ba/F3-EGFR-WT cells (setting [3]) and 201 nM at Bub1.
For `COCCOc1cnccc1-c1[nH]c2c(c1Nc1ccccc1OC(F)(F)F)C(=O)NCC2` [Example 14, 2-[3-(2-methoxyethoxy)pyridin-4-yl]-3-{[2-(trifluoromethoxy)phenyl]amino}-1,5,6,7-tetrahydro-4H-pyrrolo[3,2-c]pyridin-4-one], in that order: 1040 nM, 2530 nM and 704 nM.
For the molecule `CC(C)(C)CCOc1cnccc1-c1[nH]c2c(c1Nc1cccc(F)c1)C(=O)NCC2` [Example 2, 2-[3-(3,3-dimethylbutoxy)pyridin-4-yl]-3-[(3-fluorophenyl)amino]-1,5,6,7-tetrahydro-4H-pyrrolo[3,2-c]pyridin-4-one], the IC50 was 6.8 nM with Ba/F3-EGFR-insSVD cells (setting [4]); 7.49 nM and 8.81 nM and 7.48 nM and < 4.78 nM in the experiment with Ba/F3-EGFR-insSVD cells (Table 10, plated without EGF, 48 h); 1870 nM in the experiment on Ba/F3-EGFR-WT cells (setting [3]); 44.1 nM on Bub1.
For the molecule `COCCOc1cnccc1-c1[nH]c2c(c1Nc1cccc(F)c1CC(F)F)C(=O)NCC2` [Example 22, 3-{[2-(2,2-difluoroethyl)-3-fluorophenyl]amino}-2-[3-(2-methoxyethoxy)pyridin-4-yl]-1,5,6,7-tetrahydro-4H-pyrrolo[3,2-c]pyridin-4-one], the IC50 in the experiment with Ba/F3-EGFR-insSVD cells (setting [4]) worked out at 116 nM; in the experiment with Ba/F3-EGFR-WT cells (setting [3]), 1560 nM; at Bub1, 111 nM.
As for `CN1CCC[C@H]1COc1cnccc1-c1[nH]c2c(c1Nc1cccc(F)c1)C(=O)NCC2` [Example 8, 3-[(3-fluorophenyl)amino]-2-(3-{[(2S)-1-methylpyrrolidin-2-yl]methoxy}pyridin-4-yl)-1,5,6,7-tetrahydro-4H-pyrrolo[3,2-c]pyridin-4-one], the IC50 was 69.5 nM in the experiment with Ba/F3-EGFR-insSVD cells (setting [7]); 623 nM in the experiment with Ba/F3-EGFR-WT cells (setting [8]); 65.8 nM at Bub1; 0.31 nM in experiment [2] (setting [5]); 0.324 nM in experiment [2] (setting [6]).
For the molecule `COC(C)(C)COc1cnccc1-c1[nH]c2c(c1Nc1cc(F)cc(F)c1)C(=O)NCC2` [Example 10, 3-[(3,5-difluorophenyl)amino]-2-[3-(2-methoxy-2-methylpropoxy)pyridin-4-yl]-1,5,6,7-tetrahydro-4H-pyrrolo[3,2-c]pyridin-4-one], the IC50 is 56.9 nM in the experiment with Ba/F3-EGFR-insSVD cells (setting [4]); 352 nM in the experiment with Ba/F3-EGFR-WT cells (setting [3]); 12.4 nM on Bub1; less than 0.072 nM in experiment [2] (setting [5]); < 0.0725 nM (4×) and 0.133 nM in experiment [2] (setting [6]).
Turning to `COCCOc1cnccc1-c1[nH]c2c(c1Nc1cccc(F)c1OC(F)F)C(=O)NCC2` [Example 18, 3-{[2-(difluoromethoxy)-3-fluorophenyl]amino}-2-[3-(2-methoxyethoxy)pyridin-4-yl]-1,5,6,7-tetrahydro-4H-pyrrolo[3,2-c]pyridin-4-one], the IC50 at Bub1 was 375 nM.
As for `COCCOc1cnccc1-c1[nH]c2c(c1Nc1ccccc1)C(=O)NCC2` [Example 1, 2-[3-(2-methoxyethoxy)pyridin-4-yl]-3-(phenylamino)-1,5,6,7-tetrahydro-4H-pyrrolo[3,2-c]pyridin-4-one], the IC50 at Bub1 is 14.5 nM.
For the molecule `COc1c(Cl)cccc1Nc1c(-c2ccncc2OC[C@@H]2CCCN2)[nH]c2c1C(=O)NCC2` [Example 80, 3-(3-chloro-2-methoxyanilino)-2-(3-{[(2S)-pyrrolidin-2-yl]methoxy}pyridin-4-yl)-1,5,6,7-tetrahydro-4H-pyrrolo[3,2-c]pyridin-4-one], the results for the IC50 (in the experiment on Ba/F3-EGFR-insSVD cells (setting [4]); with Ba/F3-EGFR-WT cells (setting [3]); in experiment [2] (setting [6])) were 206 nM, 1460 nM and 0.503 nM, respectively.
On the same counts, the results for `COCCOc1cnccc1-c1[nH]c2c(c1Nc1cccc(Cl)c1Cl)C(=O)NCC2` [Example 46, 3-(2,3-dichloroanilino)-2-[3-(2-methoxyethoxy)pyridin-4-yl]-1,5,6,7-tetrahydro-4H-pyrrolo[3,2-c]pyridin-4-one] are 15.1 nM, 364 nM and 0.0912 nM.
As for `COCCOc1cnccc1-c1[nH]c2c(c1Nc1ccccc1C(F)(F)F)C(=O)NCC2` [Example 47, 2-[3-(2-methoxyethoxy)pyridin-4-yl]-3-[2-(trifluoromethyl)anilino]-1,5,6,7-tetrahydro-4H-pyrrolo[3,2-c]pyridin-4-one], the IC50 stood at 448 nM with Ba/F3-EGFR-insSVD cells (setting [4]), 3240 nM with Ba/F3-EGFR-WT cells (setting [3]) and 0.169 nM in experiment [2] (setting [6]).
On the same counts, the results for `CCOC(C)(C)COc1cnccc1-c1[nH]c2c(c1Nc1cccc(F)c1OC)C(=O)NCC2` [Example 58, 2-[3-(2-ethoxy-2-methylpropoxy)pyridin-4-yl]-3-(3-fluoro-2-methoxyanilino)-1,5,6,7-tetrahydro-4H-pyrrolo[3,2-c]pyridin-4-one] are 18.6 nM, 561 nM and 0.113 nM.
Regarding `COc1c(F)cccc1Nc1c(-c2ccncc2OCCN2CCOCC2)[nH]c2c1C(=O)NCC2` [Example 84, 3-(3-fluoro-2-methoxyanilino)-2-{3-[2-(morpholin-4-yl)ethoxy]pyridin-4-yl}-1,5,6,7-tetrahydro-4H-pyrrolo[3,2-c]pyridin-4-one], the IC50 in the experiment with Ba/F3-EGFR-insSVD cells (setting [7]) was 188 nM; with Ba/F3-EGFR-WT cells (setting [8]) it was 2210 nM; in experiment [2] (setting [6]), 0.223 nM.
